Test results reported in patent US20150065717A1, “NIPECOTIC ACID DERIVATIVE AND USE THEREOF FOR MEDICAL PURPOSES” (Toray Industries, Inc., priority 2012, published 2015).

Columns and labels:
[1] = test system: rat monocrotaline-administered pulmonary hypertension model; experiment: Rat monocrotaline-administered pulmonary hypertension model, administration from day of monocrotaline; assay type: in vivo, rat (Wistar strain); details: for right ventricular systolic pressure vs pulmonary hypertension control group / right ventricular weight ratio vs pulmonary hypertension control group: Dunnett's test p<0.05; for heart rate vs pulmonary hypertension control group / systemic systolic pressure vs pulmonary hypertension control group: Dunnett's test
Protocol: Example Compound 1 or 2 was administered to a rat monocrotaline-administered pulmonary hypertension model (Journal of Pharmacological Sciences, 2009, vol. 111, p. 235-243), and the therapeutic effect of the nipecotic acid derivative (I) or a pharmaceutically acceptable salt thereof on pulmonary hypertension was evaluated.
Rats (Wistar strain, male, 5 weeks old; JAPAN SLC, Inc.) with pulmonary hypertension induced by subcutaneous administration of an aqueous monocrotaline (Sigma Corporation) solution (60 mg/kg) to the back were provided as “group with induced pulmonary hypertension”. On the other hand, rats to which water for injection was similarly administered were provided as “normal group”.
To rats in the group with induced pulmonary hypertension, Example Compound 1 (3, 10 or 30 mg/kg) or a positive control compound tadalafil (10 mg/kg) was orally administered once per day for 24 days from the day of administration of monocrotaline. The Example Compound 1 and tadalafil were used as suspensions in 0.5% aqueous methyl cellulose solution supplemented with 0.5% Tween 80. The groups in which Example Compound 1 was administered at doses of 3, 10 and 30 mg/kg were provided as “Example Compound 1 (3 mg/kg)-administered group”, “Example Compound 1 (10 mg/kg)-administered group” and “Example Compound 1 (30 mg/kg)-administered group”, respectively. The group in which tadalafil was administered at a dose of 10 mg/kg was provided as “tadalafil-administered group”. In addition, for comparative control, 0.5% aqueous methyl cellulose solution supplemented with 0.5% Tween 80 was similarly administered to rats in the group with induced pulmonary hypertension, to provide “pulmonary hypertension control group”. Similarly, 0.5% aqueous methyl cellulose solution supplemented with 0.5% Tween 80 was administered in the normal group.
On the next day of the last administration of the test substance, the right ventricular systolic pressure, systemic systolic pressure and heart rate were measured. The measurement of the right ventricular systolic pressure and the systemic systolic pressure was carried out using an amplifier for blood pressure measurement (Nihon Kohden Corporation). The measurement of the heart rate was carried out using an instant heart rate meter unit (Nihon Kohden Corporation). On the same day, the body weight, lung wet weight, and wet weights of the right ventricle, left ventricle and septum were measured to determine the right ventricular weight ratio (right ventricular weight/(septum weight+left ventricular weight)) and the lung weight ratio (lung weight/body weight).
The lungs were stored by immersion in formalin after measurement of the wet weight. The formalin-fixed lungs were embedded in paraffin, and sections were prepared. Immunostained tissue samples were prepared using an anti-sEH antibody to study expression of sEH. Pathological specimens were prepared by Elastica-van Gieson staining to study thickening of pulmonary arteries. Immunostained tissue samples were prepared using an anti-PCNA antibody to study cell growth. The right ventricle was stored by immersion in formalin after measurement of the wet weight. The formalin-fixed right ventricle was embedded in paraffin, and sections were prepared. Pathological specimens were prepared by HE staining to study myocardial hypertrophy.
The removed lungs were homogenized in a buffer, and 14,15-EET and 14,15-DHET were extracted. The extracted 14,15-EET was hydrolyzed for conversion to 14,15-DHET, and the 14,15-DHET concentration was measured by the ELISA method. The increase in the concentration of 14,15-DHET due to the hydrolysis was regarded as the 14,15-EET concentration, and the 14,15-EET/14,15-DHET ratio was determined.
FIGS. 4 to 6 show the results on the right ventricular systolic pressure, right ventricular weight ratio and lung weight ratio determined on the next day of the last administration of the test compound. […]

[2] = test system: rat diabetic nephropathy model; experiment: Pharmacological effect in rat diabetic nephropathy model (streptozotocin); assay type: in vivo, rat (spontaneously hypertensive rat); details: mean±standard error, n=6
Protocol: Example Compound 1 was administered to a rat diabetic nephropathy model (International Journal of Molecular Medicine, 2007, vol. 19, p. 571-579; Hypertension, 1998, vol. 32, p. 778-785), and the therapeutic effect of the nipecotic acid derivative (I) or a pharmaceutically acceptable salt thereof on chronic renal disease with diabetic nephropathy was evaluated.
Rats (spontaneously hypertensive rat, male, 12 or 13 weeks old; Charles River Laboratories Japan, Inc.) with diabetic nephropathy induced by administration of an aqueous streptozotocin (Enzo Life Sciences, Inc.) solution (40 mg/kg) into the tail vein were provided as “group with induced diabetic nephropathy”. On the other hand, rats to which water for injection was similarly administered were provided as “untreated group”.
Six weeks after administration of streptozotocin, urine was collected using a metabolic cage at room temperature for 24 hours. The urinary albumin concentration in the collected urine was measured by the ELISA method. From the urinary albumin concentration and the urine weight, the amount of urinary albumin excretion was calculated.
To rats showing pathological conditions of diabetic nephropathy in the group with induced diabetic nephropathy, Example Compound 1 (10 mg/kg) or a positive control compound imidapril (2 mg/kg) was orally administered once per day for 20 days from Day 8 after the administration of streptozotocin. […]
After the last administration of the test substance on Day 27 after administration of streptozotocin, urine was collected using a metabolic cage at room temperature for 24 hours. The urinary albumin concentration in the collected urine was measured by the ELISA method. From the urinary albumin concentration and the urine weight, the amount of urinary albumin excretion was calculated. In addition, on Day 18 after administration of streptozotocin, the systemic systolic pressure was measured by the tail-cuff method. On Day 29 after administration of streptozotocin, blood was collected from the abdominal aorta of each rat, and the plasma glucose concentration was measured. […]

[3] = 10 mg/kg orally once per day for 24 days from day of monocrotaline
[4] = 10 mg/kg orally once per day for 24 days
[5] = 3 mg/kg orally once per day for 24 days
[6] = 30 mg/kg orally once per day for 24 days from day of monocrotaline
[7] = 30 mg/kg orally once per day for 24 days

Row | Structure (SMILES) | lung weight ratio vs pulmonary hypertension control group [1, 3] | right ventricular systolic pressure vs pulmonary hypertension control group [1, 3] | right ventricular weight ratio vs pulmonary hypertension control group [1, 3] | heart rate vs pulmonary hypertension control group [1, 4] | systemic systolic pressure vs pulmonary hypertension control group [1, 4] | heart rate vs pulmonary hypertension control group [1, 5] | systemic systolic pressure vs pulmonary hypertension control group [1, 5] | thickening of pulmonary arteries in lungs vs pulmonary hypertension control group ([1]; 3 mg/kg, Elastica-van Gieson staining) | myocardial hypertrophy of the right ventricle vs pulmonary hypertension control group ([1]; 3 mg/kg, HE staining) | cell growth in lungs vs pulmonary hypertension control group ([1]; 3 mg/kg, anti-PCNA immunostaining) | 14,15-EET/14,15-DHET ratio in lungs vs pulmonary hypertension control group ([1]; 10 mg/kg, ELISA) | right ventricular systolic pressure vs pulmonary hypertension control group [1, 6] | right ventricular weight ratio vs pulmonary hypertension control group [1, 6] | heart rate vs pulmonary hypertension control group [1, 7] | systemic systolic pressure vs pulmonary hypertension control group [1, 7] | amount of urinary albumin excretion ([2]; Day 27 after streptozotocin, orally once per day for 20 days from Day 8 (Example Compound 1 10 mg/kg, imidapril 2 mg/kg)) [mg/day] | systemic systolic pressure ([2]; day 18 after streptozotocin, 10 mg/kg orally once per day, tail-cuff) [mmHg]
1 | CC(C)(NS(C)(=O)=O)C(=O)N1CCC[C@@H](C(=O)NCc2ccc(C#N)cc2OC(F)(F)F)C1 [Example Compound 2, (R)—N-(4-cyano-2-(trifluoromethoxy)benzyl)-1-(2-methyl-2-(methylsulfonamido)propanoyl)piperidine-3-carboxamide] | lower | statistically significantly lower | statistically significantly lower | not significantly different | not significantly different | – | – | – | – | – | – | – | – | – | – | – | –
2 | CCC(=O)NC1(C(=O)N2CCC[C@@H](C(=O)NCc3ccc(C#N)cc3OC(F)(F)F)C2)CCC1 [Example Compound 1, (R)—N-(4-cyano-2-(trifluoromethoxy)benzyl)-1-(1-propionamidocyclobutanecarbonyl)piperidine-3-carboxamide] | statistically significantly lower | statistically significantly lower | statistically significantly lower | not significantly different | not significantly different | not significantly different | not significantly different | less thickened pulmonary arteries | less myocardial hypertrophy | less cell growth | higher | statistically significantly lower | statistically significantly lower | not significantly different | not significantly different | 5.41 ± 1.13 | 199±6
